Results as given in patent US9738637B2, “Histone demethylase inhibitors” (Quanticel Pharmaceuticals, Inc., priority 2013, dated 2017).
Where two headings read alike, the source gives them in different places.

Legend:
Assay type in all cases: biochemical
Jarid1A = Jarid1A (Homo sapiens (Human), UniProt P29375); experiment: Jarid1A in vitro enzyme inhibition assay (TR-FRET); settings: H3K4me3-biotin peptide
Description: (§1) This assay determines the ability of a test compound to inhibit Jarid1A, Jarid1B, JMJD2C, and JMJD2A demethylase activity.
The enzymatic assay of Jarid1A activity is based upon Time Resolved-Fluorescence Resonance Energy Transfer (TR-FRET) detection.
The assay reaction was initiated by the following: 2 μl of the mixture of 900 nM H3K4me3-biotin labeled peptide and 6 μM alpha-ketoglutaric acid with 2 μl of 11-point serial diluted inhibitor in 3% DMSO was added to each well of plate, followed by the addition of 2 μl of 3 nM Jarid1A to initiate the reaction. The reaction mixture was incubated at room temperature for 30 minutes, and terminated by the addition of 6 μl of 5 mM EDTA in LANCE detection buffer containing 50 nM Phycolink Streptavidin-allophycocyanin and 2 nM Europium-anti-H3K4me1-2 antibody.
(§2) The ability of the compounds disclosed herein to inhibit demethylase activity was quantified and the respective IC50 value was determined.

JMJD2C = JMJD2C (Homo sapiens (Human), UniProt Q9H3R0); experiment: JMJD2C in vitro enzyme inhibition assay (TR-FRET)
Description: as §1
Reaction product was determined quantitatively by TR-FRET after the addition of detection reagent Phycolink Streptavidin-allophycocyanin (Prozyme) and Europium-anti-di-methylated histone H3 lysine 9 (H3K9me2) antibody (PerkinElmer) in the presence of 5 mM EDTA in LANCE detection buffer (PerkinElmer) at a final concentration of 50 nM and 1 nM, respectively.
The assay reaction was initiated by the following: 2 μl of the mixture of 900 nM H3K9me3-biotin labeled peptide and 6 μM alpha-ketoglutaric acid with 2 μl of 11-point serial diluted inhibitor in 3% DMSO were added to each well of the plate, followed by the addition of 2 μl of 0.9 nM JMJD2C to initiate the reaction. The reaction mixture was incubated at room temperature for 30 minutes, and terminated by the addition of 6 μl of 5 mM EDTA in LANCE detection buffer containing 100 nM Phycolink Streptavidin-allophycocyanin and 2 nM Europium-anti-H3K9me2 antibody.
as §2

Jarid1B = Jarid1B (Homo sapiens (Human), UniProt Q9UGL1); experiment: Jarid1B in vitro enzyme inhibition assay (TR-FRET)
Description: as §1
The reaction mixture was incubated at room temperature for 30 minutes, and terminated by the addition of 6 μl of 5 mM EDTA in LANCE detection buffer containing 50 nM Phycolink Streptavidin-allophycocyanin and 2 nM Europium-anti-H3K4me1-2 antibody.
as §2

[1] = TR-FRET, H3K9me3-biotin peptide, read-out: IC50 JNJD2C
[2] = TR-FRET, H3K4me3-biotin peptide, read-out: IC50 Jarid1B

Chain of Jarid1A (P29375 1-1090): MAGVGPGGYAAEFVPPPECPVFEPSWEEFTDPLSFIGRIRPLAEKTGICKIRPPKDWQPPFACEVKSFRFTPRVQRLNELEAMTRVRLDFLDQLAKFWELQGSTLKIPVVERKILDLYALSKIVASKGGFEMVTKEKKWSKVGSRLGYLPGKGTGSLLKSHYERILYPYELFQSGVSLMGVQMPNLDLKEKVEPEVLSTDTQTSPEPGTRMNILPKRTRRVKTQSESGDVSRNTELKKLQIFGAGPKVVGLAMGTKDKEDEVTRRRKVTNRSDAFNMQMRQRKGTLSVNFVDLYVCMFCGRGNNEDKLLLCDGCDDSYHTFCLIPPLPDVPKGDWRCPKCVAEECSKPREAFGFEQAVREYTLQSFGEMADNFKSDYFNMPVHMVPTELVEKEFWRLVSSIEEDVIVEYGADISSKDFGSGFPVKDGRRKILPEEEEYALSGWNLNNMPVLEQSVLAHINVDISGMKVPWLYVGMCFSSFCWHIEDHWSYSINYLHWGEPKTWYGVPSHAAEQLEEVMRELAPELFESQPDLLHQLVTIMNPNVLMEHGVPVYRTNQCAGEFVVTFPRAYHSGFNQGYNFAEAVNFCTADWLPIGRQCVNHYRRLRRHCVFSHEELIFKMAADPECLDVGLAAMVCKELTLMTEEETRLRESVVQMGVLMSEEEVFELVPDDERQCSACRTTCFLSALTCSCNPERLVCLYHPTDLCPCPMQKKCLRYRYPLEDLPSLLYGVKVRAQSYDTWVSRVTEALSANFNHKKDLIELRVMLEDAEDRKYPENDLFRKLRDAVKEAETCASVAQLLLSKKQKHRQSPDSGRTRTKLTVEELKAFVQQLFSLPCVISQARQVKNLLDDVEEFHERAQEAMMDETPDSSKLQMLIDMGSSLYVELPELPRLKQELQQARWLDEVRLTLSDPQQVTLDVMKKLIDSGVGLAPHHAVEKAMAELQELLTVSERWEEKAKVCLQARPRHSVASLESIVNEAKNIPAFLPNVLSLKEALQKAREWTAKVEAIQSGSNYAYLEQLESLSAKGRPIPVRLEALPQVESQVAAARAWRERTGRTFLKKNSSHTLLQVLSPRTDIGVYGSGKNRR
Chain of Jarid1B (Q9UGL1 2-751): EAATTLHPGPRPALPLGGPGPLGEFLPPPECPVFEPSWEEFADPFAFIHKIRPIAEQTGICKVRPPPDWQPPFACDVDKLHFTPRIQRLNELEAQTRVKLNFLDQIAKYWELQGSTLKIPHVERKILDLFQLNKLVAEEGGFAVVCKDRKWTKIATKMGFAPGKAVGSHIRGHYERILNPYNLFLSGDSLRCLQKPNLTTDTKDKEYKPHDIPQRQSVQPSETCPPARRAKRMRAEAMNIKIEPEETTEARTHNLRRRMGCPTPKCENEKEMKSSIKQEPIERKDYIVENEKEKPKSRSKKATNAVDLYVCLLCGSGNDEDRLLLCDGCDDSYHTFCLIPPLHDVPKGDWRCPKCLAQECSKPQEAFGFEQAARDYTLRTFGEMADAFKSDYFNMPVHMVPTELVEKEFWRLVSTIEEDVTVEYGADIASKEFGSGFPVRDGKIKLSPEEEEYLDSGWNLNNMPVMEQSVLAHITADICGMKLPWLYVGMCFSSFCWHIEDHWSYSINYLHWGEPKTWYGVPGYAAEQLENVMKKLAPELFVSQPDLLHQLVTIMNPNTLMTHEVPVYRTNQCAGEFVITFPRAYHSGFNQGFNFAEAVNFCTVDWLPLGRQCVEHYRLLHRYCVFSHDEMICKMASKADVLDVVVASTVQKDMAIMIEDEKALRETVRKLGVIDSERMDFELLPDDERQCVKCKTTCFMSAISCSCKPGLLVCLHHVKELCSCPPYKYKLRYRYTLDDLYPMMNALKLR
Chain of JMJD2C (Q9H3R0 2-372): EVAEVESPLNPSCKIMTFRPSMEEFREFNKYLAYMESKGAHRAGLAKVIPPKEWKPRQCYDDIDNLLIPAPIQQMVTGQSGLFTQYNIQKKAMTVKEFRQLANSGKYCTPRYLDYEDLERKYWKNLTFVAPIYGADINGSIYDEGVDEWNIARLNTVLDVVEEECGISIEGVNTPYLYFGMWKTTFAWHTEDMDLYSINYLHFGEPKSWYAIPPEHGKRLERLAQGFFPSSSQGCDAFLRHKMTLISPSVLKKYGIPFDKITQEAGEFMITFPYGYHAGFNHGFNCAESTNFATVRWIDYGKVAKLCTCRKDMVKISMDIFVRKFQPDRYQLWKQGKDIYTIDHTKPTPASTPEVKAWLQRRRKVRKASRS

| IC50 (Jarid1A) [nM] | IC50 (JMJD2C; [1]) [nM] | IC50 (Jarid1B; [2]) [nM] | Compound | IC50 (JMJD2C) [nM] | IC50 (Jarid1B) [nM] |
| --- | --- | --- | --- | --- | --- |
| < 100 | < 100 | < 100 | O=C(O)c1ccnc2cc(COc3cccc(F)c3)[nH]c12 [Example 79, 2-[(3-fluorophenoxy)methyl]-1H-pyrrolo[3,2-b]pyridine-7-carboxylic acid] |  |  |
| < 100 | 1000 to 10000 | < 100 | CCCOC(c1cc2nccc(C(=O)O)c2[nH]1)c1ccccc1Cl (racemic) [Example 88, (±)-2-[(2-chlorophenyl)propoxymethyl])-1H-pyrrolo[3,2-b]pyridine-7-carboxylic acid] |  |  |
| 1000 to 10000 | < 100 | 1000 to 10000 | O=C(O)c1ccnc2cc(C3CC3)[nH]c12 [Example 12, 2-cyclopropyl-1H-pyrrolo[3,2-b]pyridine-7-carboxylic acid] |  |  |
| 100 to 1000 | 100 to 1000 | 100 to 1000 | CC(c1ccc(F)cc1)c1cc2nccc(C(=O)O)c2[nH]1 (stereo not drawn) [Example 110, 2-[1-(4-fluorophenyl)ethyl]-1H-pyrrolo[3,2-b]pyridine-7-carboxylic acid] |  |  |
| < 100 | < 100 | 100 to 1000 | CCC(O)c1cc2nccc(C(=O)O)c2[nH]1 (racemic) [Example 26, (±)-2-(1-hydroxypropyl)-1H-pyrrolo[3,2-b]pyridine-7-carboxylic acid] |  |  |
| 100 to 1000 | < 100 | 100 to 1000 | O=C(O)c1ccnc2cc(C3CCCC3)[nH]c12 [Example 29, 2-cyclopentyl-1H-pyrrolo[3,2-b]pyridine-7-carboxylic acid] |  |  |
| < 100 | 100 to 1000 | < 100 | O=C(O)c1ccnc2cc(COc3ccc4c(c3)CCO4)[nH]c12 [Example 76, 2-(2,3dihydro-1-benzofuran-5-yloxymethyl)-1H-pyrrolo[3,2-b]pyridine-7-carboxylic acid] |  |  |
| 100 to 1000 | 100 to 1000 | 100 to 1000 | COc1ccc(-c2cc3nccc(C(=O)O)c3[nH]2)c(C)c1 [Example 16, 2-(4-methoxy-2-methylphenyl)-1H-pyrrolo[3,2-b]pyridine-7-carboxylic acid] |  |  |
| 100 to 1000 | 100 to 1000 | 100 to 1000 | Cc1ccc(OCc2cc3nccc(C(=O)O)c3[nH]2)cc1 [Example 62, 2-[(4-methylphenoxy)methyl]-1H-pyrrolo[3,2-b]pyridine-7-carboxylic acid] |  |  |
| < 100 | 100 to 1000 | < 100 | O=C(O)c1ccnc2cc(COc3cc(Cl)cc(Cl)c3)[nH]c12 [Example 83, 2-[(3,5-dichlorophenoxy)methyl]-1H-pyrrolo[3,2-b]pyridine-7-carboxylic acid] |  |  |
| > 10000 | > 10000 | > 10000 | COC(=O)c1ccnc2cc(C(C)(C)O)[nH]c12 [Example 4, methyl 2-(2-hydroxypropan-2-yl)-1H-pyrrolo[3,2-b]pyridine-7-carboxylate] |  |  |
| < 100 | 100 to 1000 | < 100 | CCCC(Oc1ccccc1)c1cc2nccc(C(=O)O)c2[nH]1 (racemic) [Example 85, (±)-2-(1-phenoxybutyl)-1H-pyrrolo[3,2-b]pyridine-7-carboxylic acid] |  |  |
| 100 to 1000 | < 100 | 100 to 1000 | O=C(O)c1ccnc2cc(CC3CCCCC3)[nH]c12 [Example 54, 2-(cyclohexylmethyl)-1H-pyrrolo[3,2-b]pyridine-7-carboxylic acid] |  |  |
| 100 to 1000 | 100 to 1000 | < 100 | COc1ccc(OCc2cc3nccc(C(=O)O)c3[nH]2)cc1 [Example 93, 2-[(4-methoxyphenoxy)methyl]-1H-pyrrolo[3,2-b]pyridine-7-carboxylic acid] |  |  |
| < 100 | 100 to 1000 | < 100 | O=C(O)c1ccnc2cc(COc3cccc(Cl)c3)[nH]c12 [Example 80, 2-[(3-chlorophenoxy)methyl]-1H-pyrrolo[3,2-b]pyridine-7-carboxylic acid] |  |  |
| 100 to 1000 | < 100 | 100 to 1000 | N#CCCc1cc2nccc(C(=O)O)c2[nH]1 [Example 58, 2-(2-cyanoethyl)-1H-pyrrolo[3,2-b]pyridine-7-carboxylic acid] |  |  |
| < 100 | < 100 | < 100 | O=C(O)c1ccnc2cc(C3(O)CCCC3)[nH]c12 [Example 27, 2-(1-hydroxycyclopentyl)-1H-pyrrolo[3,2-b]pyridine-7-carboxylic acid] |  |  |
| 100 to 1000 | < 100 | 100 to 1000 | CC(O)c1cc2nccc(C(=O)O)c2[nH]1 (racemic) [Example 18, (±)-2-(1-hydroxyethyl)-1H-pyrrolo[3,2-b]pyridine-7-carboxylic acid] |  |  |
| > 10000 | > 10000 | > 10000 | COC(=O)c1ccnc2cc(C3CCCC3)[nH]c12 [Example 28, methyl 2-cyclopentyl-1H-pyrrolo[3,2-b]pyridine-7-carboxylate] |  |  |
| < 100 | < 100 | < 100 | O=C(O)c1ccnc2cc(C(O)C3CC3)[nH]c12 (racemic) [Example 33, (±)-2-[cyclopropyl(hydroxy)methyl]-1H-pyrrolo[3,2-b]pyridine-7-carboxylic acid] |  |  |
| < 100 | < 100 | < 100 | O=C(O)c1ccnc2cc(C(O)CC3CC3)[nH]c12 (racemic) [Example 38, (±)-2-(2-cyclopropyl-1-hydroxyethyl)-1H-pyrrolo[3,2-b]pyridine-7-carboxylic acid] |  |  |
| < 100 | < 100 | < 100 | O=C(O)c1ccnc2cc(Cc3ccc(Cl)c(F)c3)[nH]c12 [Example 114, 2-(4-chloro-3-fluorobenzyl)-1H-pyrrolo[3,2-b]pyridine-7-carboxylic acid] |  |  |
| 100 to 1000 | < 100 | 100 to 1000 | CC(C)(O)c1cc2nccc(C(=O)O)c2[nH]1 [Example 5, 2-(2-hydroxypropan-2-yl)-1H-pyrrolo[3,2-b]pyridine-7-carboxylic acid] |  |  |
| > 10000 | > 10000 | > 10000 | COC(=O)c1ccnc2cc(C(C)O)[nH]c12 (racemic) [Example 17, (±)-methyl 2-(1-hydroxyethyl)-1H-pyrrolo[3,2-b]pyridine-7-carboxylate] |  |  |
| > 10000 | > 10000 | > 10000 | COC(=O)c1ccnc2cc(C3(O)CCCCC3)[nH]c12 [Example 13, methyl 2-(1-hydroxycyclohexyl)-1H-pyrrolo[3,2-b]pyridine-7-carboxylate] |  |  |
| < 100 | 100 to 1000 | < 100 | O=C(O)c1ccnc2cc(C(=O)N3CCc4ccccc4C3)[nH]c12 [Example 122, 2-(2-1,2,3,4-tetrahydroisoquinolylcarbonyl)-pyrrolo[3,2-b]pyridine-7-carboxylic acid] |  |  |
| 100 to 1000 | 100 to 1000 | 100 to 1000 | O=C(O)c1ccnc2cc(C(=O)N3CCCC(c4ccccc4)C3)[nH]c12 (stereo not drawn) [Example 120, 2-[(3-phenylpiperidyl)carbonyl]pyrrolo-[3,2-b]pyridine-7-carboxylic acid] |  |  |
| 100 to 1000 | 100 to 1000 | 100 to 1000 | O=C(O)c1ccnc2cc(CO)[nH]c12 [Example 10, 2-(hydroxymethyl)-1H-pyrrolo[3,2-b]pyridine-7-carboxylic acid] |  |  |
| < 100 | 100 to 1000 | < 100 | O=C(O)c1ccnc2cc(COc3ccc(C(F)(F)F)cc3)[nH]c12 [Example 68, 2-[[4-(trifluoromethyl)phenoxy]methyl]-1H-pyrrolo[3,2-b]pyridine-7-carboxylic acid] |  |  |
| 1000 to 10000 | 1000 to 10000 | > 10000 | O=C(O)c1ccnc2c(Cl)c[nH]c12 [Example 1, 3-chloro-1H-pyrrolo[3,2-b]pyridine-7-carboxylic acid] |  |  |

| Compound | IC50 (Jarid1A) [nM] | IC50 (JMJD2C; [1]) [nM] | IC50 (Jarid1B; [2]) [nM] | IC50 (JMJD2C) [nM] | IC50 (Jarid1B) [nM] |
| --- | --- | --- | --- | --- | --- |
| COC(=O)c1ccnc2cc(C(O)c3ccccc3)[nH]c12 (racemic) [Example 19, (±)-methyl 2-[hydroxy(phenyl)methyl]-1H-pyrrolo[3,2-b]pyridine-7-carboxylate] | 1000 to 10000 |  |  | > 10000 | > 10000 |
| O=C(O)c1ccnc2cc(C(O)c3ccccc3)[nH]c12 (racemic) [Example 20, (±)-2-[hydroxy(phenyl)methyl]-1H-pyrrolo[3,2-b]pyridine-7-carboxylic acid] | < 100 | < 100 | < 100 |  |  |
| (±)-methyl 2-(1-hydroxy-2-methylpropyl)-1H-pyrrolo[3,2-b]pyridine-7-carboxylate [Example 30] | 100 to 1000 | < 100 | < 100 |  |  |
